Key:
[1] = cited from earlier work
[2] = tested on: RAW264.7 cells; test: RANKL-induced osteoclast differentiation, TRAP staining; format: cell-based; conditions: 50 ng/ml RANKL; CGS21680 10^−6M; four days
Description: Tartrate-resistant acid phosphatase (TRAP) staining was carried out. The number of TRAP-positive MNCs containing ≥3 nuclei/cell was scored.

Nc1ncnc2c1ncn2[C@@H]1O[C@H](CO)[C@@H](O)[C@H]1O [Adenosine, adenosine]
half-life in vivo [1]: < 10 s

CCNC(=O)[C@H]1O[C@@H](n2cnc3c(N)nc(NCCc4ccc(CCC(=O)O)cc4)nc32)[C@H](O)[C@@H]1O [CGS21680]
RANKL-induced osteoclast differentiation [2]: block

Source: patent US10744209B2, “Biodegradable polymeric nanoparticle conjugates and use thereof” (NEW YORK UNIVERSITY, priority 2015, dated 2020)
